#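 Briefly, cells in 96-well plates were exposed to five compound concentrations for 48 h, and endpoints were estimated by linear interpolation. GI50 is the concentration that inhibits growth by half. TGI denotes the concentration required for complete inhibition of growth.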
# Assays:
# Assay in all cases: NCI-60 cell line screen, 48 h
# 786-0 renal = test system: 786-0 renal
# A498 renal = test system: A498 renal
# A549 NSCLC = test system: A549 NSCLC
# ACHN renal = test system: ACHN renal
# BT-549 breast = test system: BT-549 breast
# CAKI-1 renal = test system: CAKI-1 renal
# CCRF-CEM leukemia = test system: CCRF-CEM leukemia
# COLO 205 colon = test system: COLO 205 colon
# DU-145 prostate = test system: DU-145 prostate
# EKVX NSCLC = test system: EKVX NSCLC
# HCC-2998 colon = test system: HCC-2998 colon
# HCT-116 colon = test system: HCT-116 colon
# HCT-15 colon = test system: HCT-15 colon
# HL-60(TB) leukemia = test system: HL-60(TB) leukemia
# HOP-62 NSCLC = test system: HOP-62 NSCLC
# HOP-92 NSCLC = test system: HOP-92 NSCLC
# HS 578T breast = test system: HS 578T breast
# HT29 colon = test system: HT29 colon
# IGROV1 ovarian = test system: IGROV1 ovarian
# K-562 leukemia = test system: K-562 leukemia
# KM12 colon = test system: KM12 colon
# LOX IMVI melanoma = test system: LOX IMVI melanoma
# M14 melanoma = test system: M14 melanoma
# MALME-3M melanoma = test system: MALME-3M melanoma
# MCF7 breast = test system: MCF7 breast
# MDA-MB-231 breast = test system: MDA-MB-231 breast
# MOLT-4 leukemia = test system: MOLT-4 leukemia
# NCI-H23 lung = test system: NCI-H23 lung
# NCI-H460 lung = test system: NCI-H460 lung
# NCI-H522 lung = test system: NCI-H522 lung
# NCI/ADR-RES ovarian = test system: NCI/ADR-RES ovarian
# OVCAR-4 ovarian = test system: OVCAR-4 ovarian
# OVCAR-5 ovarian = test system: OVCAR-5 ovarian
# OVCAR-8 ovarian = test system: OVCAR-8 ovarian
# PC-3 prostate = test system: PC-3 prostate
# RPMI-8226 leukemia = test system: RPMI-8226 leukemia
# RXF 393 renal = test system: RXF 393 renal
# SF-268 CNS = test system: SF-268 CNS
# SF-295 CNS = test system: SF-295 CNS
# SK-MEL-2 melanoma = test system: SK-MEL-2 melanoma
# SK-MEL-28 melanoma = test system: SK-MEL-28 melanoma
# SK-MEL-5 melanoma = test system: SK-MEL-5 melanoma
# SK-OV-3 ovarian = test system: SK-OV-3 ovarian
# SN12C renal = test system: SN12C renal
# SNB-19 CNS = test system: SNB-19 CNS
# SNB-75 CNS = test system: SNB-75 CNS
# SR leukemia = test system: SR leukemia
# SW-620 colon = test system: SW-620 colon
# T-47D breast = test system: T-47D breast
# TK-10 renal = test system: TK-10 renal
# U251 CNS = test system: U251 CNS
# UACC-257 melanoma = test system: UACC-257 melanoma
# UACC-62 melanoma = test system: UACC-62 melanoma
# UO-31 renal = test system: UO-31 renal
smiles,measurement,setting,value
COc1cc(OC)c(/C=C/S(=O)(=O)Cc2ccc(OC)c(NCC(=O)NO)c2)c(OC)c1,GI50,786-0 renal,40.9 nM
same,TGI,786-0 renal,> 100000 nM
same,GI50,A498 renal,< 10 nM
same,TGI,A498 renal,101 nM
same,GI50,A549 NSCLC,36.4 nM
same,TGI,A549 NSCLC,> 100000 nM
same,GI50,ACHN renal,< 15.2 nM
same,TGI,ACHN renal,> 100000 nM
same,GI50,BT-549 breast,22.1 nM
same,GI50,CAKI-1 renal,< 10 nM
same,TGI,CAKI-1 renal,> 100000 nM
same,GI50,CCRF-CEM leukemia,41 nM
same,TGI,CCRF-CEM leukemia,> 100000 nM
same,GI50,COLO 205 colon,31.6 nM
same,TGI,COLO 205 colon,119 nM
same,GI50,DU-145 prostate,39.5 nM
same,TGI,DU-145 prostate,> 100000 nM
same,GI50,EKVX NSCLC,58 nM
same,TGI,EKVX NSCLC,> 100000 nM
same,GI50,HCC-2998 colon,34.6 nM
same,TGI,HCC-2998 colon,> 100000 nM
same,GI50,HCT-116 colon,19.8 nM
same,GI50,HCT-15 colon,13.1 nM
same,TGI,HCT-15 colon,> 100000 nM
same,GI50,HL-60(TB) leukemia,19.1 nM
same,TGI,HL-60(TB) leukemia,59.3 nM
same,GI50,HOP-62 NSCLC,47.2 nM
same,TGI,HOP-62 NSCLC,> 100000 nM
same,GI50,HOP-92 NSCLC,77.7 nM
same,TGI,HOP-92 NSCLC,> 100000 nM
same,GI50,HS 578T breast,< 14.2 nM
same,TGI,HS 578T breast,> 100000 nM
same,GI50,HT29 colon,36.8 nM
same,TGI,HT29 colon,4840 nM
same,GI50,IGROV1 ovarian,24.1 nM
same,TGI,IGROV1 ovarian,> 100000 nM
same,GI50,K-562 leukemia,< 10 nM
same,TGI,K-562 leukemia,> 100000 nM
same,GI50,KM12 colon,10.5 nM
same,TGI,KM12 colon,> 100000 nM
same,GI50,LOX IMVI melanoma,< 10 nM
same,TGI,LOX IMVI melanoma,> 100000 nM
same,GI50,M14 melanoma,22 nM
same,TGI,M14 melanoma,> 100000 nM
same,GI50,MALME-3M melanoma,> 100000 nM
same,TGI,MALME-3M melanoma,> 100000 nM
same,GI50,MCF7 breast,14.2 nM
same,TGI,MCF7 breast,> 100000 nM
same,GI50,MDA-MB-231 breast,45.7 nM
same,TGI,MDA-MB-231 breast,> 100000 nM
same,GI50,MOLT-4 leukemia,41.5 nM
same,TGI,MOLT-4 leukemia,> 100000 nM
same,GI50,NCI-H23 lung,41.4 nM
same,TGI,NCI-H23 lung,> 100000 nM
same,GI50,NCI-H460 lung,25.6 nM
same,TGI,NCI-H460 lung,> 100000 nM
same,GI50,NCI-H522 lung,< 10 nM
same,GI50,NCI/ADR-RES ovarian,< 10 nM
same,TGI,NCI/ADR-RES ovarian,> 100000 nM
same,GI50,OVCAR-4 ovarian,46100 nM
same,TGI,OVCAR-4 ovarian,> 100000 nM
same,GI50,OVCAR-5 ovarian,53.5 nM
same,TGI,OVCAR-5 ovarian,> 100000 nM
same,GI50,OVCAR-8 ovarian,35.6 nM
same,TGI,OVCAR-8 ovarian,> 100000 nM
same,GI50,PC-3 prostate,28.5 nM
same,TGI,PC-3 prostate,> 100000 nM
same,GI50,RPMI-8226 leukemia,45 nM
same,TGI,RPMI-8226 leukemia,> 100000 nM
same,GI50,RXF 393 renal,< 11 nM
same,TGI,RXF 393 renal,> 100000 nM
same,GI50,SF-268 CNS,86.3 nM
same,TGI,SF-268 CNS,> 100000 nM
same,GI50,SF-295 CNS,< 10 nM
same,TGI,SF-295 CNS,> 100000 nM
same,GI50,SK-MEL-2 melanoma,> 100000 nM
same,TGI,SK-MEL-2 melanoma,> 100000 nM
same,GI50,SK-MEL-28 melanoma,> 23700 nM
same,TGI,SK-MEL-28 melanoma,> 100000 nM
same,GI50,SK-MEL-5 melanoma,18.5 nM
same,TGI,SK-MEL-5 melanoma,182 nM
same,GI50,SK-OV-3 ovarian,69.7 nM
same,TGI,SK-OV-3 ovarian,> 100000 nM
same,GI50,SN12C renal,55.5 nM
same,TGI,SN12C renal,> 100000 nM
same,GI50,SNB-19 CNS,43.4 nM
same,TGI,SNB-19 CNS,> 100000 nM
same,GI50,SNB-75 CNS,< 10 nM
same,TGI,SNB-75 CNS,72.6 nM
same,GI50,SR leukemia,< 10.4 nM
same,TGI,SR leukemia,> 100000 nM
same,GI50,SW-620 colon,27.9 nM
same,TGI,SW-620 colon,> 100000 nM
same,GI50,T-47D breast,17800 nM
same,TGI,T-47D breast,> 100000 nM
same,GI50,TK-10 renal,> 100000 nM
same,TGI,TK-10 renal,> 100000 nM
same,GI50,U251 CNS,35.5 nM
same,TGI,U251 CNS,> 100000 nM
same,GI50,UACC-257 melanoma,> 100000 nM
same,TGI,UACC-257 melanoma,> 100000 nM
same,GI50,UACC-62 melanoma,< 10 nM
same,TGI,UACC-62 melanoma,> 100000 nM
same,GI50,UO-31 renal,72.3 nM
same,TGI,UO-31 renal,> 100000 nM

# Reference: PubChem BioAssay (NCI)
